Reference: paper PMC5513037, “Examining the influence of specificity ligands and ATP-competitive ligands on the overall effectiveness of bivalent kinase inhibitors” (Proteome Science, 2017)

How the values were obtained:
Experiment in all cases: Imatinib-matrix competition in K562 lysate
Format in all cases: binding
Conditions in all cases: read-out: RB50 (the source's name)
[1] = biological target: T1, TKT (Homo sapiens, UniProt P29401)
T1 construct: endogenous in cells; host or cells: K562
Description: (§1) Data were visualized for further analysis using Spotfire DXP.

[2] = biological target: T2, SPEG (Homo sapiens, UniProt Q15772)
T2 construct: endogenous in cells; host or cells: K562
Description: as §1

[3] = biological target: T3, PRKDC (Homo sapiens, UniProt P78527)
T3 construct: endogenous in cells; host or cells: K562
Description: as §1

[4] = biological target: T4, VRK3 (Homo sapiens, UniProt Q8IV63)
T4 construct: endogenous in cells; host or cells: K562
Description: as §1

[5] = biological target: T5, PBK (Homo sapiens, UniProt Q96KB5)
T5 construct: endogenous in cells; host or cells: K562
T5 sequence (Q96KB5 1-322): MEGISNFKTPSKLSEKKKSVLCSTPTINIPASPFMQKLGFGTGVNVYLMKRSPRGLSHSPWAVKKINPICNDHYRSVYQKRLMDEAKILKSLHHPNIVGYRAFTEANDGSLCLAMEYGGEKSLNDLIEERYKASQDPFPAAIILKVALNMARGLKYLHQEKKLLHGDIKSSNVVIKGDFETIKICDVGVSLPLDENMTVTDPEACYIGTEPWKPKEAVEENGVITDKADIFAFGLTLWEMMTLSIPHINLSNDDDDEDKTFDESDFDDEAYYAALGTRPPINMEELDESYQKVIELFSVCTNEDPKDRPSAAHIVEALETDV
Description: as §1

[6] = biological target: T6, EEF2K (Homo sapiens, UniProt O00418)
T6 construct: endogenous in cells; host or cells: K562 lysate
T6 sequence (O00418 1-725): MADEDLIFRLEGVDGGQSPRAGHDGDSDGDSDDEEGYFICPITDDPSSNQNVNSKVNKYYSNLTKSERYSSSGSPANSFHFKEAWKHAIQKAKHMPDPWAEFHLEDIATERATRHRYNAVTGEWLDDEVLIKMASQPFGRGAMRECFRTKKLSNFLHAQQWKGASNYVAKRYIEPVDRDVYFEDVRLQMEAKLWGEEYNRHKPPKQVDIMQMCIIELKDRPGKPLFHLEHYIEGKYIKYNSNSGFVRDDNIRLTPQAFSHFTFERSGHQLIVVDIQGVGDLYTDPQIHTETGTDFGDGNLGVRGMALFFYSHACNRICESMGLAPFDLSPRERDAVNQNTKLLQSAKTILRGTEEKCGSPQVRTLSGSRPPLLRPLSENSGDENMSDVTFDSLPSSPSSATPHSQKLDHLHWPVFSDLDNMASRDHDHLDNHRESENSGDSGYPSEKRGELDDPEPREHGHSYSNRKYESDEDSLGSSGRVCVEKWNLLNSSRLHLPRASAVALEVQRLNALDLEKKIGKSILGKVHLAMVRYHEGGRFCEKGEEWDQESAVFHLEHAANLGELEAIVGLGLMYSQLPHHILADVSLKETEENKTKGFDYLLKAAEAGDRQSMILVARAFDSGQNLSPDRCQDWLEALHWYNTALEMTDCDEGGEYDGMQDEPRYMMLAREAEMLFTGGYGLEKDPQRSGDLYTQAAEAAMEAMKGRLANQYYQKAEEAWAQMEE
Description: as §1

[7] = biological target: T7, TRIM28 (Homo sapiens, UniProt Q13263)
T7 construct: endogenous in cells; host or cells: K562
Description: as §1

[8] = biological target: T8, TTN (Homo sapiens, UniProt Q8WZ42)
T8 construct: endogenous in cells; host or cells: K562
Description: as §1

[9] = biological target: T9, TFG (Homo sapiens, UniProt Q92734)
T9 construct: endogenous in cells; host or cells: K562
Description: as §1

[10] = biological target: T10, TRRAP (Homo sapiens, UniProt Q9Y4A5)
T10 construct: endogenous in cells; host or cells: K562
Description: as §1

[11] = biological target: T11, BRD4 (Homo sapiens, UniProt O60885)
T11 construct: endogenous in cells; host or cells: K562
Description: as §1

[12] = biological target: T12, CHD5 (Homo sapiens, UniProt Q8TDI0)
T12 construct: endogenous in cells; host or cells: K562
Description: as §1

[13] = biological target: T13, BUB1B (Homo sapiens, UniProt O60566)
T13 construct: endogenous in cells; host or cells: K562
Description: as §1

[14] = biological target: T14, TRIM33 (Homo sapiens, UniProt Q9UPN9)
T14 construct: endogenous in cells; host or cells: K562
Description: as §1

[15] = biological target: T15, SMG1 (Homo sapiens, UniProt Q96Q15)
T15 construct: endogenous in cells; host or cells: K562
Description: as §1

[16] = biological target: T16, ALPK3 (Homo sapiens, UniProt Q96L96)
T16 construct: endogenous in cells; host or cells: K562
Description: as §1

[17] = biological target: T17, ATR (Homo sapiens, UniProt Q13535)
T17 construct: endogenous in cells; host or cells: K562
Description: as §1

[18] = biological target: T18, NRK (Homo sapiens, UniProt Q7Z2Y5)
T18 construct: endogenous in cells; host or cells: K562
Description: as §1

[19] = biological target: T19, SRM (Homo sapiens, UniProt P19623)
T19 construct: K562 lysate (5 mg per treatment) was preincubated; endogenous in cells; host or cells: K562 lysate
Description: as §1

[20] = biological target: T20, RP1 (Homo sapiens, UniProt P56715)
T20 construct: endogenous in cells; host or cells: K562
Description: as §1

[21] = biological target: T21, CDC7 (Homo sapiens, UniProt O00311)
T21 construct: endogenous in cells; host or cells: K562 lysate
Description: as §1

[22] = biological target: T22, VRK1 (Homo sapiens, UniProt Q99986)
T22 construct: endogenous in cells; host or cells: K562
T22 sequence (Q99986 1-396): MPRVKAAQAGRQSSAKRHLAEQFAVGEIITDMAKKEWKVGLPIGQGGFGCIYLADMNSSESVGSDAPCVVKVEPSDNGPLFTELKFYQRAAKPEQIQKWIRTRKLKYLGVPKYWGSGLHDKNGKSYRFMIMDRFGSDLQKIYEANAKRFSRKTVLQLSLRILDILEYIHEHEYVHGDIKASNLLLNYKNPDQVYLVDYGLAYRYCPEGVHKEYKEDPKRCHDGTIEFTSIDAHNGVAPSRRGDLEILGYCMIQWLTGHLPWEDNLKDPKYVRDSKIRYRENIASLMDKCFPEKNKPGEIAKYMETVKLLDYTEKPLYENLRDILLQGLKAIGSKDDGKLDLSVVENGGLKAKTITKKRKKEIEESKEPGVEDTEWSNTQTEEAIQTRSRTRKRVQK
Description: as §1

[23] = biological target: T23, RPS6KB2 (Homo sapiens, UniProt Q9UBS0)
T23 construct: endogenous in cells; host or cells: K562
Description: as §1

Measured: IC50

Cc1ccc(NC(=O)c2ccc(CN3CCN(C)CC3)cc2)cc1Nc1nccc(-c2cccnc2)n1 [Imatinib]
> 10 µM: [1] | [2] | [3] | [4] | [5] | [6] | [7] | [8] | [9] | [10] | [11] | [12] | [13] | [14] | [15] | [16] | [17] | [18] | [19] | [20] | [21] | [22] | [23]
